From paper PMC11106739, “Discovery and Derivatization of Tridecaptin Antibiotics with Altered Host Specificity and Enhanced Bioactivity” (ACS Chemical Biology, 2024)
In brackets after ≈: the same amount, converted by molar mass. Like-named read-outs stand apart in the source and are kept apart here. Where a SMILES comes first, the peptide text is derived from it. Bridges are numbered along the chain shown (N, C = ends). [ ]: non-standard residue; d: D form. The star is where a group is joined. d(aIle) = CC[C@H](C)[C@@H](N)C(=O)O; X1 = CC[C@H](C)CCCCC(=O)*; dDab = NCC[C@@H](N)C(=O)O; Octanoyl = CCCCCCCC(=O)*; Dab = NCC[C@H](N)C(=O)O

Tests used:
S. aureus 1126387 = type: cell-based, Staphylococcus aureus
Procedure: (§1) All minimum inhibitory concentrations (MICs) were determined according to the Clinical and Standards Laboratory Institute (CLSI) guidelines. In brief, agar plates were inoculated from glycerol stocks and incubated overnight at 35 °C. Peptide DMSO stocks were dispensed into 96-well round-bottom plates using a TECAN D300e dispenser. Colistin sulfate (Sigma-Aldrich) was dissolved in water and serially diluted in a cation-adjusted Mueller Hinton broth (10 μL per well). Final concentrations of the test compounds were 0.06 to 64 μg/mL. Inocula were prepared by direct colony suspension in NaCl at 0.5 MacFarland, which was further diluted 200-fold in cation-adjusted Mueller Hinton broth for a target inoculum of 2 × 10^5 colony forming units (CFUs)/mL. 100 μL portion of the prepared inoculum was added to each well of the prepared plates containing the test compounds. Plates were sealed with parafilm and incubated for 20 h at 35 °C. Images of all plates were recorded, and MIC was assessed visually.

S. aureus ATCC 29213 = type: cell-based, Staphylococcus aureus
Procedure: as §1

S. aureus UAMS-1625 = type: cell-based, Staphylococcus aureus; details: S. aureus UAMS-1625 (BV18); CLSI broth dilution, cation-adjusted Mueller Hinton broth, 20 h, 35 °C, read visually
Procedure: as §1

ATCC 25922 = type: cell-based, Enterococcus faecalis
Procedure: as §1

E. faecalis ATCC 29212 = type: cell-based, Enterococcus faecalis
Procedure: as §1

E. faecium ATCC 51559 = type: cell-based, Enterococcus faecium
Procedure: as §1

E. faecium IHMA 890472 = type: cell-based, Enterococcus faecium
Procedure: as §1

A. baumannii ATCC 17978 = type: cell-based, Acinetobacter baumannii
Procedure: as §1

A. baumannii HUMC1 = type: cell-based, Acinetobacter baumannii
Procedure: as §1

A. baumannii IHMA 777621 = type: cell-based, Acinetobacter baumannii
Procedure: as §1

E. coli 1214245 = type: cell-based, Escherichia coli
Procedure: as §1

E. coli 1220120 = type: cell-based, Escherichia coli
Procedure: as §1

E. coli ATCC 25922 = type: cell-based, Escherichia coli
Procedure: as §1

K. pneumoniae 1227947 = type: cell-based, Klebsiella pneumoniae
Procedure: as §1

K. pneumoniae 1228586 = type: cell-based, Klebsiella pneumoniae
Procedure: as §1

K. pneumoniae ATCC 13883 = type: cell-based, Klebsiella pneumoniae
Procedure: as §1

P. aeruginosa 1218019 = type: cell-based, Pseudomonas aeruginosa
Procedure: as §1

P. aeruginosa 1226072 = type: cell-based, Pseudomonas aeruginosa
Procedure: as §1

P. aeruginosa PAO1 = type: cell-based, Pseudomonas aeruginosa
Procedure: as §1

Rabbit red blood cells = experiment: Hemolysis assay; type: cell-based; details: rabbit red blood cells in PBS, 37 °C, 1 h, absorbance at 405 nm, normalization to the Triton X-100 control; 0.25 to 128 μg/mL tested
Procedure: Peptides, dissolved in DMSO, were dispensed into 96-well round-bottom microplates using a TECAN D300e dispenser and subsequently diluted with 100 μL of PBS. PBS or 2% Triton X-100 was used as negative and positive controls, respectively. Rabbit red blood cells (BioConcept) were diluted in PBS to a final concentration of 2%, and 100 μL was added to each well of the prepared 96-well plates. The final concentration of the test compounds was 0.25 to 128 μg/mL. Plates were incubated at 37 °C for 1 h and afterward subjected to centrifugation at 1000g for 5 min. Then, 30 μL of supernatant was transferred to a new round-bottom plate, and absorbance was measured at 405 nm (TECAN Infinite F200). EC50s were calculated after blank subtraction and normalization to the Triton control.

HepG2 cells = experiment: Cytotoxicity determination (CellTiter-Glo); type: cell-based; details: HepG2, medium without serum, 24 h, normalization to the untreated control, 1 to 128 μg/mL tested
Procedure: HepG2 cells were grown in EMEM (Sigma) supplemented with 2 mM glutamine and 10% fetal bovine serum (Fisher) at 37 °C, 5% CO2. 20′000 cells per well were seeded into clear tissue culture-treated 96-well plates and incubated for 24 h. Peptides, dissolved in DMSO, were dispensed into 96 deep well plates (TECAN D300e dispenser) and diluted to a final concentration of 1 to 128 μg/mL using fresh medium without serum. The next day, the old media were removed from the cells, and 200 μL of the prepared compound dilutions was added per well. Plates were incubated for another 24 h before assessing the cell viability using the CellTiter-Glo kit (Promega) according to the manufacturer’s protocol. IC50s were calculated after normalization to the untreated control.

Row | Compound | MIC (S. aureus 1126387; 1126387, 20 h) [µg/mL] | MIC (S. aureus ATCC 29213; ATCC 29213, 20 h) [µg/mL] | MIC (S. aureus UAMS-1625) [µg/mL] | MIC (ATCC 25922; ATCC 25922, 20 h) [µg/mL] | MIC (E. faecalis ATCC 29212; ATCC 29212, 20 h) [µg/mL] | MIC (E. faecium ATCC 51559; ATCC 51559, 20 h) [µg/mL] | MIC (E. faecium IHMA 890472; IHMA 890472, 20 h) [µg/mL] | MIC (A. baumannii ATCC 17978; ATCC 17978, 20 h) [µg/mL] | MIC (A. baumannii HUMC1; HUMC1, 20 h) [µg/mL] | MIC (A. baumannii IHMA 777621; IHMA 777621, 20 h) [µg/mL] | MIC (E. coli 1214245; 1214245, 20 h) [µg/mL] | MIC (E. coli 1220120; 1220120, 20 h) [µg/mL] | MIC (E. coli ATCC 25922; ATCC 25922, 20 h) [µg/mL] | MIC (K. pneumoniae 1227947; 1227947, 20 h) [µg/mL] | MIC (K. pneumoniae 1228586; 1228586, 20 h) [µg/mL] | MIC (K. pneumoniae ATCC 13883; ATCC 13883, 20 h) [µg/mL] | MIC (P. aeruginosa 1218019; 1218019, 20 h) [µg/mL] | MIC (P. aeruginosa 1226072; 1226072, 20 h) [µg/mL] | MIC (P. aeruginosa PAO1; PAO1, 20 h) [µg/mL] | other results
1 | CCCCCCCC(=O)N[C@@H](C(=O)N[C@H](CCN)C(=O)NCC(=O)N[C@H](CO)C(=O)N[C@H](Cc1c[nH]c2ccccc12)C(=O)N[C@@H](CO)C(=O)N[C@@H](CCN)C(=O)N[C@H](CCN)C(=O)N[C@H](C(=O)N[C@@H](CCC(=O)O)C(=O)N[C@H](C(=O)N[C@@H](C(=O)N[C@@H](C)C(=O)O)[C@@H](C)CC)C(C)C)[C@@H](C)CC)C(C)C [Oct-Ile9] (Octanoyl-[dV][dDab]G[dS][dW]S[Dab][dDab]IEV[d(aIle)]A-OH) | >64 | 64 (≈ 43 µM) | >64 | 64 (≈ 43 µM) | 64 (≈ 43 µM) | 64 (≈ 43 µM) | 32 (≈ 21.5 µM) | 16 (≈ 10.8 µM) | 16 (≈ 10.8 µM) | 16 (≈ 10.8 µM) | 2 (≈ 1.35 µM) | 2 (≈ 1.35 µM) | 2 (≈ 1.35 µM) | 4 (≈ 2.69 µM) | 4 (≈ 2.69 µM) | 2 (≈ 1.35 µM) | 16 (≈ 10.8 µM) | 16 (≈ 10.8 µM) | 64 (≈ 43 µM) | Hemolysis EC50 (Rabbit red blood cells): >128 µg/mL
2 | CCCCCCCC(=O)N[C@@H](C(=O)N[C@H](CCN)C(=O)NCC(=O)N[C@H](CO)C(=O)N[C@H](Cc1c[nH]c2ccccc12)C(=O)N[C@@H](CO)C(=O)N[C@@H](CCN)C(=O)N[C@H](CCN)C(=O)N[C@@H](Cc1ccc(O)cc1)C(=O)N[C@@H](CCC(=O)O)C(=O)N[C@H](C(=O)N[C@@H](C(=O)N[C@@H](C)C(=O)O)[C@@H](C)CC)C(C)C)C(C)C [Oct-Tyr9] (Octanoyl-[dV][dDab]G[dS][dW]S[Dab][dDab]YEV[d(aIle)]A-OH) | >64 | >64 | >64 | 64 (≈ 41.6 µM) | 64 (≈ 41.6 µM) | 64 (≈ 41.6 µM) | 32 (≈ 20.8 µM) | 32 (≈ 20.8 µM) | 32 (≈ 20.8 µM) | 32 (≈ 20.8 µM) | 2 (≈ 1.3 µM) | 4 (≈ 2.6 µM) | 2 (≈ 1.3 µM) | 4 (≈ 2.6 µM) | 4 (≈ 2.6 µM) | 4 (≈ 2.6 µM) | 4 (≈ 2.6 µM) | 4 (≈ 2.6 µM) | 64 (≈ 41.6 µM) | –
3 | CC[C@H](C)CCCCC(=O)N[C@@H](CCN)C(=O)N[C@H](C(=O)N[C@@H](CCN)C(=O)N[C@H]1CCNC(=O)[C@H]([C@@H](C)O)NC(=O)[C@H](CCN)NC(=O)[C@H](CCN)NC(=O)[C@H](CC(C)C)NC(=O)[C@@H](CC(C)C)NC(=O)[C@H](CCN)NC1=O)[C@@H](C)O [colistin, reference compound] (X1-[Dab]T[Dab][Dab][Dab][dL]L[Dab][Dab]T; lactam 4-C (inferred); N-terminus assumed) | – | – | >64 | – | – | – | – | – | – | – | – | – | – | – | – | – | – | – | – | MIC (S. aureus 1126387; S. aureus 1126387 (BV1402), CLSI broth dilution, cation-adjusted Mueller Hinton broth, 20 h, 35 °C, read visually): >64 µg/mL; MIC (S. aureus ATCC 29213; S. aureus ATCC 29213 (BV249), CLSI broth dilution, cation-adjusted Mueller Hinton broth, 20 h, 35 °C, read visually): >64 µg/mL; MIC (ATCC 25922; E. faecalis ATCC 25922 (BV99), CLSI broth dilution, cation-adjusted Mueller Hinton broth, 20 h, 35 °C, read visually): >64 µg/mL; MIC (E. faecalis ATCC 29212; E. faecalis ATCC 29212 (BV29), CLSI broth dilution, cation-adjusted Mueller Hinton broth, 20 h, 35 °C, read visually): >64 µg/mL; MIC (E. faecium ATCC 51559; E. faecium ATCC 51559 (BV159), CLSI broth dilution, cation-adjusted Mueller Hinton broth, 20 h, 35 °C, read visually): >64 µg/mL; MIC (E. faecium IHMA 890472; E. faecium IHMA 890472 (BV144), CLSI broth dilution, cation-adjusted Mueller Hinton broth, 20 h, 35 °C, read visually): >64 µg/mL; MIC (A. baumannii ATCC 17978; A. baumannii ATCC 17978 (BV160), CLSI broth dilution, cation-adjusted Mueller Hinton broth, 20 h, 35 °C, read visually): 1 µg/mL (≈ 0.855 µM); MIC (A. baumannii HUMC1; A. baumannii HUMC1 (BV374), CLSI broth dilution, cation-adjusted Mueller Hinton broth, 20 h, 35 °C, read visually): 1 µg/mL (≈ 0.855 µM); MIC (A. baumannii IHMA 777621; A. baumannii IHMA 777621 (BV94), CLSI broth dilution, cation-adjusted Mueller Hinton broth, 20 h, 35 °C, read visually): 64 µg/mL (≈ 54.7 µM); MIC (E. coli 1214245; E. coli 1214245 (BV1469), CLSI broth dilution, cation-adjusted Mueller Hinton broth, 20 h, 35 °C, read visually): 32 µg/mL (≈ 27.4 µM); MIC (E. coli 1220120; E. coli 1220120 (BV1475), CLSI broth dilution, cation-adjusted Mueller Hinton broth, 20 h, 35 °C, read visually): 0.5 µg/mL (≈ 0.428 µM); MIC (E. coli ATCC 25922; E. coli ATCC 25922 (BV23), CLSI broth dilution, cation-adjusted Mueller Hinton broth, 20 h, 35 °C, read visually): 1 µg/mL (≈ 0.855 µM); MIC (K. pneumoniae 1227947; K. pneumoniae 1227947 (BV1445), CLSI broth dilution, cation-adjusted Mueller Hinton broth, 20 h, 35 °C, read visually): 0.5 µg/mL (≈ 0.428 µM); MIC (K. pneumoniae 1228586; K. pneumoniae 1228586 (BV1447), CLSI broth dilution, cation-adjusted Mueller Hinton broth, 20 h, 35 °C, read visually): 64 µg/mL (≈ 54.7 µM); MIC (K. pneumoniae ATCC 13883; K. pneumoniae ATCC 13883 (BV306), CLSI broth dilution, cation-adjusted Mueller Hinton broth, 20 h, 35 °C, read visually): 1 µg/mL (≈ 0.855 µM); MIC (P. aeruginosa 1218019; P. aeruginosa 1218019 (BV1544), colistin-resistant, CLSI broth dilution, cation-adjusted Mueller Hinton broth, 20 h, 35 °C, read visually): >64 µg/mL; MIC (P. aeruginosa 1226072; P. aeruginosa 1226072 (BV1551), CLSI broth dilution, cation-adjusted Mueller Hinton broth, 20 h, 35 °C, read visually): 0.5 µg/mL (≈ 0.428 µM); MIC (P. aeruginosa PAO1; P. aeruginosa PAO1 (BV34), CLSI broth dilution, cation-adjusted Mueller Hinton broth, 20 h, 35 °C, read visually): 2 µg/mL (≈ 1.71 µM); IC50 on HepG2 w/o FCS (HepG2 cells): >128 µg/mL
